IC50 data for 1 compound are collected here from article PMC11678797, “A Repurposed Drug Selection Pipeline to Identify CNS-Penetrant Drug Candidates for Glioblastoma” (Pharmaceuticals, 2024).

Test in all cases: In vitro drug screening, cell viability by CellTiter GLO 2.0 after 5 days
What all share (format): cell-based
What all share (details): Homo sapiens, 120 h, 5 days incubation
For orientation: ATP-based viability assays read luminescence as a measure of living cells.

Experiment [1] has as its system GBM8 glioblastoma patient-derived cell culture. The protocol: (§1) Glioblastoma stem-like cell cultures (GSC) were derived from primary brain tumor samples received directly from the operating room. Tumor classification was performed by the local neuropathologist according to guidelines of the WHO 2007 and 2016 classification of primary brain tumors. The use of patient tissue for this study was approved by the local ethics committee and all patients signed informed consent forms according to the guidelines of the Institutional Review Board. Samples were processed as described previously. The GBM8 cell line was kindly provided by dr. Hiroaki Wakimoto (Massachusetts General Hospital, Boston, MA, USA). All cell cultures were grown in Dulbecco’s modified Eagle’s medium (DMEM)–F12 with 1% penicillin/streptomycin, B27 (Invitrogen), human epidermal growth factor (EGF; 5 μg/mL), human basic fibroblast growth factor (FGF; 5 μg/mL) (both from Tebu-Bio) and heparin ([…]; Sigma-Aldrich, St. Louis, MI, USA).
(§2) Glioma stem-like cell cultures were cultured under serum free conditions according to Verheul et al.. Cells were seeded in 96-well plates (Greiner bio-one, Kremsmünster, Austria) coated with extracellular matrix (BD Bioscience, Becton Drive Franklin Lakes, NJ, USA) at 1000 cells/well. A stock solution of OMA was diluted in a serum-free cell culture medium to obtain a starting concentration of 8 μM in 0.1% DMSO. Serial dilutions of OMA and DMSO were added to the wells 24 h later for an incubation period of 5 days. Cell viability was measured by the CellTiter GLO 2.0 and dose–response curves and IC50 values were calculated using GraphPad Prism version 9. All experiments were performed in 3 biological replicates.
(§3) GraphPad Prism software version 9.5 (GraphPad Software) was used for calculating IC50 values using nonlinear regression (curve-fit). GraphPad Prism was used to determine whether there was a statistically significant difference in OMA concentration and the B/P ratio between the L and R hemispheres of mice bearing GS832, GS607 and GBM8 tumors, using an unpaired t-test. […]

In experiment [2] the test system is GS607 glioblastoma patient-derived cell culture. The protocol:
as §1, §2, §3

For experiment [3], the system named is GS832 glioblastoma patient-derived cell culture. The protocol:
as §1, §2, §3

With `COC(=O)C[C@](O)(CCCC(C)(C)O)C(=O)O[C@@H]1C(OC)=C[C@]23CCCN2CCc2cc4c(cc2[C@H]13)OCO4` [OMA, Omacetaxine mepesuccinate], the half-maximal inhibitory concentration (IC50) in experiment [1] is 7.2 nM; in experiment [2], 22.9 nM; in experiment [3], 4.9 nM.

Broadly, the IC50 is the concentration needed to halve the response being measured. A low value points to inhibition by little substance.
